pIC50: −log10 of the molar value.
target: human NaV 1.8 (Homo sapiens, UniProt Q9Y5Y9); assay: E-VIPR assay for detecting and measuring NaV inhibition properties; assay type: cell-based; settings: E-VIPR assay conducted in the presence of human serum; HEK cells expressing truncated human NaV 1.8; read-out: IC50
Text: Sodium ion channels are voltage-dependent proteins that can be activated by inducing membrane voltage changes by applying electric fields. The electrical stimulation instrument and methods of use, referred to as E-VIPR, are described in International Publication No. WO 2002/008748 A3 and C.-J. Huang et al. Characterization of voltage-gated sodium channel blockers by electrical stimulation and fluorescence detection of membrane potential, 24 Nature Biotech. 439-46 (2006), both of which are incorporated by reference in their entirety. The instrument comprises a microtiter plate handler, an optical system for exciting the coumarin dye while simultaneously recording the coumarin and oxonol emissions, a waveform generator, a current- or voltage-controlled amplifier, and parallel electrode pairs that are inserted into assay plate wells. Under integrated computer control, this instrument passes user-programmed electrical stimulus protocols to cells within the wells of the microtiter plate.
16-20 hours prior to running the assay on E-VIPR, HEK cells expressing a truncated form of human NaV 1.8 with full channel activity were seeded into microtiter 384-well plates, pre-coated with matrigel, at a density of 25,000 cells per well. 2.5-5% KIR2.1 Bacmam virus was added to the final cell suspension before seeding into cell plates. HEK cells were grown in Dulbecco's Modified Eagle's Medium (DMEM) supplemented with 10% FBS (Fetal Bovine Serum, qualified; Sigma #F4135), 1% NEAA (Non-Essential Amino Acids, Gibco #11140), 1% HEPES (Gibco #15630), 1% Pen-Strep (Penicillin-Streptomycin; Gibco #15140) and 5 μg/ml Blasticidin (Gibco #R210-01). Cells were expanded in vented cap cell culture flasks, with 90-95% humidity and 5% CO2.
Compound Loading Buffer (2× concentration): Na/TMA Cl Bath1 Buffer containing HS (omitted in experiments run in the absence of human serum (HS)) 50%, VABSC-1 1 mM, BSA 0.2 mg/ml (in Bath-1), KCl 9 mM, DMSO 0.75%.
• 1) To reach the final concentration in each well, 400 nL of each compound was pre-spotted (in neat DMSO) into polypropylene compound plates at 250× desired final concentration from an intermediate stock concentration of 0.075 mM, in an 11 point dose response, 3-fold dilution, resulting in a top dose of 300 nM final concentration in the cell plate. Vehicle control (neat DMSO), and positive control (an established NaV1.8 inhibitor, 25 μM final in assay in DMSO) were added manually to the outermost columns of each plate respectively. The compound plate was backfilled with 45 μL per well of Compound Loading Buffer resulting in a 250 fold dilution of compound following a 1:1 transfer of compound into the cell plate (see Step 6). Final DMSO concentration for all wells in the assay was 0.625% (0.75% DMSO was supplemented to the Compound Loading Buffer for a final DMSO concentration of 0.625%). This assay dilution protocol was adjusted to enable a higher dose range to be tested in the presence of HS or if the final assay volume was altered. • 2) Hexyl Dye Solution was prepared. • 3) Cell plates were prepared. On the day of the assay, the media was aspirated, and the cells were washed three times with 80 μL of Bath-1 buffer, maintaining 25 μL residual volume in each well. • 4) 25 μL per well of Hexyl Dye Solution was dispensed into the cell plates. The cells were incubated for 20 minutes at room temperature or ambient conditions in darkness. • 5) 45 μL per well of Compound Loading Buffer was dispensed into compound plates. • 6) The cell plates were washed three times with 80 μL per well of Bath-1 Buffer, leaving 25 µL of residual volume. Then 25 μL per well from compound plate was transferred to each cell plate. The mixture was incubated for 30 minutes at room temperature/ambient conditions. • 7) The cell plate containing compound was read on E-VIPR using the current-controlled amplifier to deliver stimulation wave pulses using a symmetrical biphasic waveform. […]

Chain of human NaV 1.8 (Q9Y5Y9 whole entry, looked up, the tested form may be a part): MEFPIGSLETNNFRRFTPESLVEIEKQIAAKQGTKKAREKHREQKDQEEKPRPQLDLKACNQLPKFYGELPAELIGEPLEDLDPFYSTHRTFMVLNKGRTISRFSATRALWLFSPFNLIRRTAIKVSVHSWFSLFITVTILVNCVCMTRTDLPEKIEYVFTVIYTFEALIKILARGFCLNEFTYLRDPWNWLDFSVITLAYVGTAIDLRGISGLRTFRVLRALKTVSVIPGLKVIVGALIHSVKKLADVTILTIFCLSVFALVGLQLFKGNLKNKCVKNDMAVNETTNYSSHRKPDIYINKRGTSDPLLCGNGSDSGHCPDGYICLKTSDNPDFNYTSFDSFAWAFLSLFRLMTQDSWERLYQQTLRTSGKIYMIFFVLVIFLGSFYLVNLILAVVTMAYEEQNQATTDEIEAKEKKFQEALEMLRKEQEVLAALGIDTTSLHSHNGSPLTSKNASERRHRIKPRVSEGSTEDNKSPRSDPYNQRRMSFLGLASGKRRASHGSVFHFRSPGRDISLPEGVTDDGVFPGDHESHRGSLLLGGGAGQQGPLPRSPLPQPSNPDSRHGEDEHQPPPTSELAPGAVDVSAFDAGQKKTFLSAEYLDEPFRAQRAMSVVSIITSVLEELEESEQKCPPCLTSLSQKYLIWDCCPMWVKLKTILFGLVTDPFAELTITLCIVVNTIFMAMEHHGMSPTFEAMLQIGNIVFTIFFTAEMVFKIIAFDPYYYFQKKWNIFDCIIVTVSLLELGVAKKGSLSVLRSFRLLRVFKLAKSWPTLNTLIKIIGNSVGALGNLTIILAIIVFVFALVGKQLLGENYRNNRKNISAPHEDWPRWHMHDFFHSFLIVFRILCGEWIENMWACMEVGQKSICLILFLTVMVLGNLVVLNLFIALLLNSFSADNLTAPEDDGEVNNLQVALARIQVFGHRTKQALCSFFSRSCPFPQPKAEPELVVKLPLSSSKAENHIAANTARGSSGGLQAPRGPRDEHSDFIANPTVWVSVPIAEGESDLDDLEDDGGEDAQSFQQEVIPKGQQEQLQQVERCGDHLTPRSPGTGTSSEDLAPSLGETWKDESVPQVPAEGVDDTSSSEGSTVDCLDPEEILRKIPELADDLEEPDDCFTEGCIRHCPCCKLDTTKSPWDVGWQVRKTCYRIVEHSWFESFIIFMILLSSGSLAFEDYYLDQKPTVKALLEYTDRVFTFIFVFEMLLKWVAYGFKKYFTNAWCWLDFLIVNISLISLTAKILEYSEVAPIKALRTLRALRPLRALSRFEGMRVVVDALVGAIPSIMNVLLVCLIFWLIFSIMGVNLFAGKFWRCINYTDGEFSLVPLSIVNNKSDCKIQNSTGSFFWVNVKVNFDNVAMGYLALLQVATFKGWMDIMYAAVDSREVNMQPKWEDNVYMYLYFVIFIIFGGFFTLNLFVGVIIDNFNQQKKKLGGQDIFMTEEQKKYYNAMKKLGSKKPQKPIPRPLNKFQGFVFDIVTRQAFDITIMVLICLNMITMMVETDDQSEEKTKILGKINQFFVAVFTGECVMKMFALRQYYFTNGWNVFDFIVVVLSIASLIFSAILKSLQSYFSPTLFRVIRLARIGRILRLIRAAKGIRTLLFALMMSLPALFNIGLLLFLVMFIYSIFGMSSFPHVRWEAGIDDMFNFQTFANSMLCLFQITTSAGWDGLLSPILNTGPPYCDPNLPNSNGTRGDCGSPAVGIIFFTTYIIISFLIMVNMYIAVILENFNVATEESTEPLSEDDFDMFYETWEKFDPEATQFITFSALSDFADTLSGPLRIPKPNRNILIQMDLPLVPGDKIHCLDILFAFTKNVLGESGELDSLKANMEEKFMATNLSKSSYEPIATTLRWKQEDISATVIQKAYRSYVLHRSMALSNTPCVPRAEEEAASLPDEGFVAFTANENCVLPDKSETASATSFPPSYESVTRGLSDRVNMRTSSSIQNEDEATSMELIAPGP

NC(=O)c1cc(NC(=O)c2cc(C(F)(F)F)ccc2Oc2cccc(C3CCCCC3)c2)ccn1 [Compound 14, 4-[[2-(3-cyclohexylphenoxy)-5-(trifluoromethyl)benzoyl]amino]pyridine-2-carboxamide] and NC(=O)c1cc(NC(=O)c2c(Oc3cccc(C4CCCCC4)c3)ccc(C(F)(F)F)c2F)ccn1 [Compound 40, 4-[[6-(3-cyclohexylphenoxy)-2-fluoro-3-(trifluoromethyl)benzoyl]amino]pyridine-2-carboxamide] cannot be ordered by pIC50: less than 5.52 for the first, less than 5.52 for the second.

COc1ccc(Cl)cc1Oc1ccc(C(F)(F)F)cc1C(=O)Nc1ccnc(C(N)=O)c1 [Compound 15, 4-[[2-(5-chloro-2-methoxy-phenoxy)-5-(trifluoromethyl)benzoyl]amino]pyridine-2-carboxamide] and COc1cc(Oc2ccc(C(F)(F)F)cc2C(=O)Nc2ccnc(C(N)=O)c2)ccc1F [Compound 16, 4-[[2-(4-fluoro-3-methoxy-phenoxy)-5-(trifluoromethyl)benzoyl]amino]pyridine-2-carboxamide] cannot be ordered by pIC50: less than 5.52 for the first, less than 5.52 for the second.

Compared with NC(=O)c1cc(NC(=O)c2cc(C(F)(F)F)ccc2Oc2ccc(F)cc2F)ccn1 [Compound 17, 4-[[2-(2,4-difluorophenoxy)-5-(trifluoromethyl)benzoyl]amino]pyridine-2-carboxamide], NC(=O)c1cc(NC(=O)c2c(Oc3ccc(F)cc3Cl)ccc(C(F)(F)F)c2F)ccn1 [Compound 20, 4-[[6-(2-chloro-4-fluoro-phenoxy)-2-fluoro-3-(trifluoromethyl)benzoyl]amino]pyridine-2-carboxamide] is higher in pIC50: less than 5.52 for the first, 7.32 for the second.

Going from CC(C)Oc1ccc(Oc2ccc(C(F)(F)F)c(F)c2C(=O)Nc2ccnc(C(N)=O)c2)c(F)c1F [Compound 18, 4-[[6-(2,3-difluoro-4-isopropoxy-phenoxy)-2-fluoro-3-(trifluoromethyl)benzoyl]amino]pyridine-2-carboxamide] to CCOc1ccc(Oc2ccc(C(F)(F)F)c(F)c2C(=O)Nc2ccnc(C(N)=O)c2)c(F)c1F [Compound 19, 4-[[6-(4-ethoxy-2,3-difluoro-phenoxy)-2-fluoro-3-(trifluoromethyl)benzoyl]amino]pyridine-2-carboxamide], the pIC50 falls from 7.72 to 7.24 (0.48 log units). The first is the more potent here.

First: COc1cc(Oc2ccc(C(F)(F)F)c(F)c2C(=O)Nc2ccnc(C(N)=O)c2)ccc1F [Compound 21, 4-[[2-fluoro-6-(4-fluoro-3-methoxy-phenoxy)-3-(trifluoromethyl)benzoyl]amino]pyridine-2-carboxamide]
Second: Cc1cc(Oc2ccc(C(F)(F)F)c(F)c2C(=O)Nc2ccnc(C(N)=O)c2)ccc1F [Compound 32, 4-[[2-fluoro-6-(4-fluoro-3-methyl-phenoxy)-3-(trifluoromethyl)benzoyl]amino]pyridine-2-carboxamide]
The pIC50 of the first is 0.70 log units lower: 6.00 for the first, 6.70 for the second.

Going from NC(=O)c1cc(NC(=O)c2c(Oc3ccccc3)ccc(C(F)(F)F)c2F)ccn1 [Compound 22, 4-[[2-fluoro-6-phenoxy-3-(trifluoromethyl)benzoyl]amino]pyridine-2-carboxamide] to CCOc1ccc(Oc2ccc(C(F)(F)F)c(F)c2C(=O)Nc2ccnc(C(N)=O)c2)cc1 [Compound 23, 4-[[6-(4-ethoxyphenoxy)-2-fluoro-3-(trifluoromethyl)benzoyl]amino]pyridine-2-carboxamide], the pIC50 rises from 6.27 to 6.82 (0.55 log units).

NC(=O)c1cc(NC(=O)c2c(Oc3ccc(F)c(F)c3)ccc(C(F)(F)F)c2F)ccn1 [Compound 24, 4-[[6-(3,4-difluorophenoxy)-2-fluoro-3-(trifluoromethyl)benzoyl]amino]pyridine-2-carboxamide] and NC(=O)c1cc(NC(=O)c2c(Oc3ccc(F)c(Cl)c3)ccc(C(F)(F)F)c2F)ccn1 [Compound 25, 4-[[6-(3-chloro-4-fluoro-phenoxy)-2-fluoro-3-(trifluoromethyl)benzoyl]amino]pyridine-2-carboxamide] are within 0.2 log units of each other in pIC50: 6.70 for the first, 6.80 for the second.

Compared with Cc1nc(C(F)(F)F)ccc1Oc1ccc(C(F)(F)F)c(F)c1C(=O)Nc1ccnc(C(N)=O)c1 [Compound 26, 4-[[2-fluoro-6-[[2-methyl-6-(trifluoromethyl)-3-pyridyl]oxy]-3-(trifluoromethyl)benzoyl]amino]pyridine-2-carboxamide], NC(=O)c1cc(NC(=O)c2c(Oc3ccc(C(F)(F)F)nc3)ccc(C(F)(F)F)c2F)ccn1 [Compound 39, 4-[[2-fluoro-3-(trifluoromethyl)-6-[[6-(trifluoromethyl)-3-pyridyl]oxy]benzoyl]amino]pyridine-2-carboxamide] is lower in pIC50: 5.89 for the first, less than 5.52 for the second. The first is the more potent here.

First: COc1ccc(Cl)cc1Oc1ccc(C(F)(F)F)c(F)c1C(=O)Nc1ccnc(C(N)=O)c1 [Compound 27, 4-[[6-(5-chloro-2-methoxy-phenoxy)-2-fluoro-3-(trifluoromethyl)benzoyl]amino]pyridine-2-carboxamide]
Second: COc1c(Oc2ccc(C(F)(F)F)c(F)c2C(=O)Nc2ccnc(C(N)=O)c2)ccc(F)c1F [Compound 31, 4-[[6-(3,4-difluoro-2-methoxy-phenoxy)-2-fluoro-3-(trifluoromethyl)benzoyl]amino]pyridine-2-carboxamide]
The pIC50 of the first is 1.28 log units lower: 6.77 for the first, 8.05 for the second. The second is the more potent here.

CC(C)Oc1ccc(Oc2ccc(C(F)(F)F)c(F)c2C(=O)Nc2ccnc(C(N)=O)c2)cc1F [Compound 28, 4-[[2-fluoro-6-(3-fluoro-4-isopropoxy-phenoxy)-3-(trifluoromethyl)benzoyl]amino]pyridine-2-carboxamide] and CC(C)Oc1ccc(Oc2ccc(C(F)(F)F)c(F)c2C(=O)Nc2ccnc(C(N)=O)c2)cc1Cl [Compound 33, 4-[[6-(3-chloro-4-isopropoxy-phenoxy)-2-fluoro-3-(trifluoromethyl)benzoyl]amino]pyridine-2-carboxamide] are within 0.2 log units of each other in pIC50: 7.62 for the first, 7.77 for the second.

CCOc1ccc(Oc2ccc(C(F)(F)F)c(F)c2C(=O)Nc2ccnc(C(N)=O)c2)cc1F [Compound 29, 4-[[6-(4-ethoxy-3-fluoro-phenoxy)-2-fluoro-3-(trifluoromethyl)benzoyl]amino]pyridine-2-carboxamide] and CCOc1ccc(Oc2ccc(C(F)(F)F)c(F)c2C(=O)Nc2ccnc(C(N)=O)c2)cc1Cl [Compound 38, 4-[[6-(3-chloro-4-ethoxy-phenoxy)-2-fluoro-3-(trifluoromethyl)benzoyl]amino]pyridine-2-carboxamide] are within 0.2 log units of each other in pIC50: 7.35 for the first, 7.37 for the second.

First: NC(=O)c1cc(NC(=O)c2c(Oc3ccc(F)c4c3OCC4)ccc(C(F)(F)F)c2F)ccn1 [Compound 30, 4-[[2-fluoro-6-[(4-fluoro-2,3-dihydrobenzofuran-7-yl)oxy]-3-(trifluoromethyl)benzoyl]amino]pyridine-2-carboxamide]
Second: COc1c(F)cccc1Oc1ccc(C(F)(F)F)c(F)c1C(=O)Nc1ccnc(C(N)=O)c1 [Compound 34, 4-[[2-fluoro-6-(3-fluoro-2-methoxy-phenoxy)-3-(trifluoromethyl)benzoyl]amino]pyridine-2-carboxamide]
The pIC50 of the first is 0.45 log units higher: 7.37 for the first, 6.92 for the second. The first is the more potent here.

First: NC(=O)c1cc(NC(=O)c2c(Oc3ccc(OC4CCCCC4)cc3)ccc(C(F)(F)F)c2F)ccn1 [Compound 35, 4-[[6-[4-(cyclohexoxy)phenoxy]-2-fluoro-3-(trifluoromethyl)benzoyl]amino]pyridine-2-carboxamide]
Second: CC(C)Oc1ccc(Oc2ccc(C(F)(F)F)c(F)c2C(=O)Nc2ccnc(C(N)=O)c2)cc1 [Compound 37, 4-[[2-fluoro-6-(4-isopropoxyphenoxy)-3-(trifluoromethyl)benzoyl]amino]pyridine-2-carboxamide]
The pIC50 of the first is 1.30 log units lower: 6.29 for the first, 7.59 for the second. The second is the more potent here.

CC(F)(F)c1cc(F)ccc1Oc1ccc(C(F)(F)F)c(F)c1C(=O)Nc1ccnc(C(N)=O)c1 [Compound 36, 4-[[6-[2-(1,1-difluoroethyl)-4-fluoro-phenoxy]-2-fluoro-3-(trifluoromethyl)benzoyl]amino]pyridine-2-carboxamide] gave a pIC50 of 6.74.

Reference: US12441703B2, “Carboxamides as modulators of sodium channels” (VERTEX PHARMACEUTICALS INCORPORATED, priority 2019, dated 2025)
